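Following 48 hours of exposure in 96-well plates, responses at five concentrations were used to interpolate endpoints linearly. Definition used: TGI = concentration required for complete inhibition of growth.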

What all share (experiment): growth of human tumour cells (NCI), 48 h
Assay [1] concerns UACC-62 melanoma.
Assay [2] deals with MDA-MB-231 breast.
The test system of assay [3] is SF-295 CNS.
Assay [4] concerns HOP-62 NSCLC.
Assay [5] relates to HT29 colon.
Assay [6] has as its system NCI-H226 lung.
Assay [7] relates to KM12 colon.
Assay [8] deals with SNB-19 CNS.
The test system of assay [9] is EKVX NSCLC.
For assay [10], the system named is CCRF-CEM leukemia.

On to `COC(=O)C(I(OS(=O)(=O)c1ccc(C)cc1)c1ccccc1)=P(c1ccccc1)(c1ccccc1)c1ccccc1`, for which the TGI in assay [1] came to 35.1 µM; in [2] it was 75.6 µM; in assay [3], 87 µM; in assay [4], 36.8 µM; in [5], 42.1 µM; in [6], 23.2 µM. The TGI in [7] was 34.2 µM; in [8], over 100 µM; in assay [9] it was 54.5 µM; in assay [10] it was over 100 µM.

Turning to `Cc1ccc(-n2cc(-c3ccc(Cl)cc3)c3c(NNC(=S)NCc4ccccc4)ncnc32)cc1`, the TGI in assay [1] was 64.8 µM; in assay [2], 59.5 µM; in assay [3], 55.4 µM; in [4], 85.4 µM; in assay [5], 50.7 µM; in [6] it was over 100 µM. Moreover, the TGI in assay [7] was 20 µM; in assay [8], over 100 µM; in assay [9], 73.5 µM; in assay [10], over 100 µM.

Consider `Clc1ccc(CCN2CCN(CCCc3ccccc3)CC2)cc1Cl`, for which the TGI in [1] is 31.5 µM; in assay [2], 30.8 µM; in [3] it was 30 µM; in assay [4], 35.8 µM; in assay [5], 26.9 µM; in assay [6], 38 µM. In addition, the TGI in [7] is 32.1 µM; in [8], 30.8 µM; in assay [9], 32.9 µM; in assay [10], over 100 µM.

Turning to `CCC(c1ccc(N(C)C)cc1)C1NC(=S)NC1=O` (centres undefined), the TGI in assay [2], in [3], in assay [5], in assay [6], in assay [7] and in assay [8] was over 100 µM in each case. Besides, the TGI in assay [9] and in assay [10] was over 100 µM each time.

Consider `O=S(=O)(N1CCCCN(S(=O)(=O)C(F)(F)F)CCCN(S(=O)(=O)C(F)(F)F)CCCN(S(=O)(=O)C(F)(F)F)CCCCN(S(=O)(=O)C(F)(F)F)CCCN(S(=O)(=O)C(F)(F)F)CCC1)C(F)(F)F`, for which the TGI in assay [1] was over 100 µM; in assay [2], over 100 µM; in assay [3], 82.1 µM; in assay [4] it was over 100 µM; in assay [5] it was over 100 µM; in assay [6], over 100 µM. In addition, the TGI in assay [7], in assay [8], in [9] and in assay [10] was over 100 µM throughout.

`COc1cc(OC)cc(N(C)Cc2cnc3nc(N)nc(N)c3c2C)c1`: the TGI was over 100 µM in [1]; over 100 µM in [2]; over 100 µM in assay [3]; over 36.1 µM in assay [4]; over 100 µM in assay [5]; over 100 µM in assay [6]. Besides, the TGI in [7], in assay [8], in assay [9] and in assay [10] was over 100 µM each time.

In the case of `C[C@H]1C(=O)C2=C[C@H]1CCC(=O)[C@]1(C)CCCC(C)(C)[C@H]1C[C@H]2O`, the TGI in [1] was over 100 µM; in [2], 20.2 µM; in assay [3] it was over 100 µM; in [4], over 100 µM; in [5], 28.6 µM; in assay [6] it was 84.3 µM. The TGI in assay [7] was 52 µM; in assay [8] it was over 100 µM; in assay [9], 31.9 µM; in assay [10], 75.4 µM.

Regarding `CCCCCCCCCCCCCCCCCc1nc(C#N)c(N)o1`, the TGI was over 100 µM in assay [1]; 96.5 µM in assay [2]; over 100 µM in [4]; over 100 µM in assay [5]; over 100 µM in [7]; over 100 µM in assay [8]. Also, the TGI in [9] and in [10] was over 100 µM each time.

`COc1ccc(N=Nc2ccc3oc(=O)c(C(=O)Nc4ccc(OC)cc4)cc3c2)cc1`: the TGI in assay [2] is 88.1 µM; in assay [3], 51.9 µM; in assay [4], 30.3 µM; in assay [5], 55.5 µM; in assay [6] it was 32.8 µM; in assay [7], 33.5 µM. Besides, the figures for the TGI in assay [8], in assay [9] and in assay [10] were 83.1 µM, 97.7 µM and over 100 µM, respectively.

As for `COc1ccc(/C=N/NC(=O)c2ccccc2Nc2ccccc2C(=O)N/N=C/c2ccc(OC)c(OC)c2)cc1OC`, the TGI is over 100 µM in assay [1]; 89.1 µM in [2]; over 100 µM in assay [3]; over 100 µM in [4]; over 100 µM in assay [5]; over 100 µM in assay [6]. Also, the TGI in assay [7], in [8], in assay [9] and in assay [10] was over 100 µM throughout.

For `CCOC(=O)C1C(=O)C=C(c2cc(C)ccc2O)CC1c1cccc(Br)c1` (centres undefined), the TGI in assay [1] was 28 µM; in assay [2], 48.4 µM; in assay [3], 35.5 µM; in assay [4], over 100 µM; in assay [5] it was 37.5 µM; in assay [6], 37.3 µM. Moreover, the TGI in assay [7] was 47.4 µM; in assay [8] it was 32.5 µM; in assay [9] it was 67.6 µM; in assay [10], 71.7 µM.

For `O=C1NC(N2CCCC(CO)C2)=N/C1=C\c1ccc(O)cc1` (centres undefined), the TGI in [1], in assay [2], in assay [3], in [4], in [5] and in assay [6] was over 100 µM each time. The TGI in [7], in [8], in [9] and in [10] was over 100 µM in each case.

As to `Cc1cc(C)n(CN(Cn2nc(C)cc2C)c2ccc(N(Cn3nc(C)cc3C)Cn3nc(C)cc3C)cc2)n1`, the TGI in [1] turned out to be 44.9 µM; in assay [2], 88.1 µM; in [3], 83.8 µM; in assay [4], 52.7 µM; in assay [5] it was 45 µM; in assay [7], 58.2 µM. Besides, the TGI in assay [8] turned out to be 64.5 µM; in assay [9] it was 54.1 µM; in [10], 63.9 µM.

These data come from PubChem BioAssay (NCI).
